{"source": "paper PMC8784342", "about": "“Investigation of sugar binding kinetics of the E. coli sugar/H^+ symporter XylE using solid-supported membrane-based electrophysiology” (The Journal of Biological Chemistry, 2021)", "key": {"wt FucP [1]": {"molecular_target": "T1, wt FucP (Escherichia coli, UniProt P11551)", "T1 construct": "made in house; host or cells: E. coli BL21 DE3", "T1 sequence (P11551 1-438)": "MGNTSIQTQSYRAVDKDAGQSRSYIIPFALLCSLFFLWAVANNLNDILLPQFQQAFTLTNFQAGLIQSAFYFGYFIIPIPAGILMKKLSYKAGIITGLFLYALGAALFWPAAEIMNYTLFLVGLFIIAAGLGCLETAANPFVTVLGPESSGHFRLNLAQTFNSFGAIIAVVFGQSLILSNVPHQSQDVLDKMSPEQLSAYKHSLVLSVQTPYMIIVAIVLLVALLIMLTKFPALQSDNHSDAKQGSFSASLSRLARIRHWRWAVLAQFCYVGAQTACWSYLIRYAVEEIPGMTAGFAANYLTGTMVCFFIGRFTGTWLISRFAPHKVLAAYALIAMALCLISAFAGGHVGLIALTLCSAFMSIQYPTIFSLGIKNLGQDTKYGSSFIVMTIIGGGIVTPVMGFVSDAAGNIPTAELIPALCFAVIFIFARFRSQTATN", "test": "SSM-based electrophysiology, proteoliposomes with wt FucP", "assay_type": "biochemical", "procedure": "(§1) Reconstitution of purified proteins (2–20 mg/ml) was carried out with E. coli phospholipids (Avanti Polar Lipids, E. coli polar lipid extract). Preformed liposomes (0.2–2 ml, 10 mg/ml) were dissolved in 1% (w/v) n-octyl-β-D-glucoside, and the protein suspension was mixed on ice to a concentration of 0.2 mg protein/mg lipid (LPR 5).\n(§2) Wt XylE, wt FucP, and the mutant proteins were reconstituted using overnight incubation in 400 mg/ml BioBeads (SM-2 Adsorbent Media, Bio-Rad) at 4 °C. After reconstitution, the samples were diluted to 2.5 mg/ml lipid concentration, frozen in liquid nitrogen, and stored at −80 °C. For wt LacY and mutant proteins, this procedure was not successful. We, therefore, applied the previously established n-octyl-β-D-glucoside dilution method (1:100) ([69]).\n(§3) SSM measurements were performed as described ([20], [23]). After thawing the sample and sonication in a water bath, 30 μl of proteoliposomes (2.5 mg/ml lipid at LPR 5) was allowed to adsorb for 1 to 2 h to an octadecanethiol/phosphatidylcholine hybrid bilayer on a gold surface (the sensor).\n(§4) For measurements, a single solution exchange configuration ([23]) was employed that consisted in three phases of 0.5 s duration each: Flow of nonactivating solution (NA), activating solution (A), and nonactivating solution (NA). Only the activating solution contained the sugar. When pH dependence is determined, pH of NA and A solutions during one experiment are kept constant. Between experiments using different pH values, the sensor was incubated at the new pH for 3 min to equilibrate the intraliposomal pH.\n(§5) Instruments with different time resolution were used as required. […] Currents were recorded throughout the entire time and amplified with a current amplifier set to a gain of […] and a rise time of 10 ms (low time-resolution set up) or 3 ms (high time-resolution set up).\n(§6) All NA solutions were buffered in 100 mM KPi at a given pH value. NA solutions used with LacY contained 1 mM DTT in addition. A solutions were made from NA solutions by adding the respective sugar at a given concentration to induce the symport reaction. Sugar concentration jumps initiated sugar-proton symport, and charge transfer was measured by capacitive coupling. Therefore, only transient currents were recorded.\n(§7) Each dataset represented with error bars was generated by performing the same experiment on multiple sensors (n ≥ 3). Error bars represent standard deviations of the average value. When peak currents are averaged across sensors, datasets are normalized before averaging. When the protein catalyzes transport and PSS currents are negligible, the peak current of the transient represents a good approximation of the current generated by the steady-state symport activity of the transporter. In most cases, peak currents have been used to derive kinetic and thermodynamic parameters according to the equations given in Figure 2 (KM, Imax ∼ Vmax, Hill coefficient n), Figure 4 (KD and rate constants for sugar binding kon and release koff), and Figure 6 (pKa for proton binding and pKb for proton release). Reconstruction of transporter currents for analysis of biphasic currents has been performed as described previously ([70]). This is required when transport and PSS currents are observed at the same time."}, "C154G/V331C LacY": {"tested_on": "C154G/V331C LacY", "set-up": "method as in PMID 19383792, PMID 17176050", "settings": "stopped flow; cited from earlier work"}, "wt LacY": {"molecular_target": "T2, wt LacY (Escherichia coli, UniProt P02920)", "T2 construct": "made in house; host or cells: E. coli XL1-Blue", "T2 sequence (P02920 1-417)": "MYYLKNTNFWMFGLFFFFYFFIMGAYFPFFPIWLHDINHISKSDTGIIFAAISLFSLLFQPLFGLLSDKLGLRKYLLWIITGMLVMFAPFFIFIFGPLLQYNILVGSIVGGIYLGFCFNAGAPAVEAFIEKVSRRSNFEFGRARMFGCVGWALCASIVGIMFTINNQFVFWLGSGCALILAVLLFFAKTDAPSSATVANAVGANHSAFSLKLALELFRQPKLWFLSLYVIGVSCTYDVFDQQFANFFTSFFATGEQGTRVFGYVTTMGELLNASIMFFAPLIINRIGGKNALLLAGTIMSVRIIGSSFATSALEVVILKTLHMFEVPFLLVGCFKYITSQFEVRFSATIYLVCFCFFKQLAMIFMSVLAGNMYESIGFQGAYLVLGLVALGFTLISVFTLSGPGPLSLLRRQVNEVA", "test": "SSM-based electrophysiology, proteoliposomes with wt LacY", "assay_type": "biochemical", "settings": "pH 7.6", "procedure": "as §1, §2, §3, §4, §5, §6, §7"}, "E325A LacY": {"molecular_target": "T3, E325A LacY (Escherichia coli, UniProt P02920, E325A)", "T3 construct": "made in house; host or cells: E. coli XL1-Blue", "T3 sequence (P02920 whole entry E325A)": "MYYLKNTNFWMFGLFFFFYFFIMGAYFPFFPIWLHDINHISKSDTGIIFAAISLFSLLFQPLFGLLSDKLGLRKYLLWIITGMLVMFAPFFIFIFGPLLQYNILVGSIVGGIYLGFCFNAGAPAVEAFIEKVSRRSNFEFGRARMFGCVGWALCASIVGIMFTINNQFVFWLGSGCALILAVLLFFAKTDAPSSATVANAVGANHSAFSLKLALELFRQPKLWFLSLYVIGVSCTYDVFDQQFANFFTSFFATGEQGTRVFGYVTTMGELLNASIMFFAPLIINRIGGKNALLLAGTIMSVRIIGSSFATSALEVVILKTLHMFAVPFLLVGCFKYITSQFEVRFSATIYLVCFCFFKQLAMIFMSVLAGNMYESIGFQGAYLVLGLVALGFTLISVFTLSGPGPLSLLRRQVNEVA", "test": "SSM-based electrophysiology, transport-deficient mutant E325A LacY (PSS currents, electrogenic binding)", "assay_type": "biochemical", "procedure": "as §1, §2, §3, §4, §5, §6, §7"}, "wt XylE": {"molecular_target": "wt XylE (Escherichia coli, UniProt P0AGF4)", "sequence (P0AGF4 whole entry)": "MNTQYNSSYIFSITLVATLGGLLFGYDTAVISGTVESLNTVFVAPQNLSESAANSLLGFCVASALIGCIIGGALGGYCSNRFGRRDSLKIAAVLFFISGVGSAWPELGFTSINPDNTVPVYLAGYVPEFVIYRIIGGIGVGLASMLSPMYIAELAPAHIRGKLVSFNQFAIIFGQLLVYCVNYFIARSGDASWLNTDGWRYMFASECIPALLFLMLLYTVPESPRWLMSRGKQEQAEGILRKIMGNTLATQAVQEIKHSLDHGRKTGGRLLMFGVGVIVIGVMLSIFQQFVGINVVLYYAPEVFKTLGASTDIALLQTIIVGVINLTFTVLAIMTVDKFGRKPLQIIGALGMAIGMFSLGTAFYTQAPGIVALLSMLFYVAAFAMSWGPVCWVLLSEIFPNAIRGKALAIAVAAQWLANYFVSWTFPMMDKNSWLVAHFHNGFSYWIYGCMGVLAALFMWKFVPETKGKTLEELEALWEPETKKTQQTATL", "test": "biochemical", "set-up": "made in house; host or cells: E. coli BL21 DE3", "procedure": "as §1, §2, §3, §4, §5, §6, §7"}, "D46N FucP": {"molecular_target": "T4, D46N FucP (Escherichia coli, UniProt P11551, D46N)", "T4 construct": "made in house; host or cells: E. coli BL21 DE3", "T4 sequence (P11551 whole entry D46N)": "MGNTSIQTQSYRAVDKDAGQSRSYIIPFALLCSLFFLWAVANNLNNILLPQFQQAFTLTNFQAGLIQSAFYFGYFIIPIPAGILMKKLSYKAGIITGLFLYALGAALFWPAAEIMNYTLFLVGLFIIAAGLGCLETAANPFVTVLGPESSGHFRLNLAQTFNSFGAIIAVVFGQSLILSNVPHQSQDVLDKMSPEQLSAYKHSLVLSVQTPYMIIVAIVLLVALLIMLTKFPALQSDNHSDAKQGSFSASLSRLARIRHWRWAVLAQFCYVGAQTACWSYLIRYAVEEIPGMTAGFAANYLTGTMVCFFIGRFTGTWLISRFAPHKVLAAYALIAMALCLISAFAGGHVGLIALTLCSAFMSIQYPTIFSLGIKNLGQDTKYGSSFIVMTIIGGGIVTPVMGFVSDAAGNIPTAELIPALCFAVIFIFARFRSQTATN", "test": "SSM-based electrophysiology, transport-deficient mutant D46N FucP (PSS currents)", "assay_type": "biochemical", "procedure": "as §1, §2, §3, §4, §5, §6, §7"}, "wt FucP [2]": {"molecular_target": "T1, wt FucP", "settings": "pH 7.6, main substrate, cited from earlier work"}, "FucP": {"tested_on": "FucP", "set-up": "method as in PMID 2829831, PMID 8384447", "settings": "radioactively labeled sugars; read-out: KM, literature; cited from earlier work"}}, "note": "Marks after values point to notes of the source that are not given here.", "data": [{"compound": "OC[C@@H]1OC(O)[C@@H](O)[C@H](O)[C@@H]1O", "note": "(stereo partly drawn) [L-galactose]", "values": [{"measurement": "Imax in percent of Imax of the main substrate (L-fucose)", "setting": "wt FucP [1]; pH 7.6", "result": "123 ± 8", "unit": "%"}]}, {"compound": "O=[N+]([O-])c1ccc(OC2O[C@H](CO)[C@H](O)[C@H](O)[C@H]2O)cc1", "note": "(stereo partly drawn) [p-nitrophenyl-D-galactopyranoside]", "values": [{"measurement": "rate constant of the binding reaction", "setting": "C154G/V331C LacY", "result": "10^6 M^−1 s^−1"}, {"measurement": "rate constant of the following conformational changes", "setting": "C154G/V331C LacY", "result": 250, "unit": "s⁻¹"}]}, {"compound": "OC[C@H]1O[C@@H](O[C@@H]2[C@@H](CO)OC(O)(CO)[C@H]2O)[C@H](O)[C@@H](O)[C@H]1O", "note": "(mixture of isomers) [Lactulose]", "values": [{"measurement": "EC50", "setting": "wt LacY; EC50,1, double Michaelis–Menten fit, peak currents", "result": "0.88 ± 0.1", "unit": "mM"}, {"measurement": "EC50", "setting": "wt LacY; EC50,2, double Michaelis–Menten fit, peak currents", "result": "90 ± 42", "unit": "mM"}, {"measurement": "Imax in percent of Imax of the main substrate (D-lactose)", "setting": "wt LacY", "result": "71 ± 8", "unit": "%"}, {"measurement": "n (Hill coefficient)", "setting": "wt LacY; peak currents, Hill equation", "result": "0.55 ± 0.08"}, {"measurement": "Kd", "setting": "E325A LacY", "result": "5 ± 0.6", "unit": "mM"}, {"measurement": "Q (pC) Mut, transferred charge", "setting": "E325A LacY; pH 7.6, saturating substrate (100 mM D-lactose, lactulose; 5 mM TDG)", "result": "2.2 ± 0.5 (pH 7.6) pC"}, {"measurement": "kobs (s^−1) mut", "setting": "E325A LacY; saturating substrate (100 mM D-lactose, lactulose; 5 mM TDG), kobs = 1/τ, limited by time resolution", "result": "380 ± 40", "unit": "s⁻¹"}]}, {"compound": "6-Deoxy-D-glucose", "values": [{"measurement": "induction of currents (substrate identification)", "setting": "wt XylE; pH 7.0", "result": "generated signals identifying them as substrates"}, {"measurement": "Imax in percent of Imax of the main substrate (D-xylose)", "setting": "wt XylE; pH 7.6", "result": "35 ± 5", "unit": "%"}, {"measurement": "Km", "setting": "wt XylE; pH 7.6, minor substrate, peak currents, low time-resolution set up, read-out: KM (mM) Michaelis–Menten equation", "result": "0.2 ± 0.05", "unit": "mM"}]}, {"compound": "L-fucose", "values": [{"measurement": "KM lower than KM obtained for minor substrates", "setting": "wt FucP [1]; pH 7.6", "result": "7–12 fold"}, {"measurement": "Q (pC) wt, PSS transferred charge", "setting": "wt FucP [1]; pH 10.5, 30 mM substrate, rough estimation", "result": "∼0.5 ^b (pH 10.5) pC"}, {"measurement": "induction of PSS currents", "setting": "D46N FucP", "result": "induces PSS currents"}, {"measurement": "kobs (s^−1) mut", "setting": "D46N FucP; 30 mM substrate, low time-resolution set up", "result": "100 ± 20 ^a s^−1"}, {"measurement": "Q (pC) Mut, transferred charge", "setting": "D46N FucP; pH 10.5, 30 mM substrate", "result": "−1.2 ± 0.6 (pH 10.5) pC"}, {"measurement": "Imax", "setting": "wt FucP [2]", "result": "0.5 ± 0.2", "unit": "nA"}, {"measurement": "Km", "setting": "wt FucP [2]; read-out: KM (mM) Michaelis–Menten equation", "result": "0.9 ± 0.1", "unit": "mM"}, {"measurement": "Km", "setting": "FucP", "result": "20 to 40", "unit": "µM"}]}]}
